Measurements reported in ChEMBL document CHEMBL3044752, “Isobutyl amides--potent compounds for controlling Diatraea saccharalis” (2009).

System: Diatraea saccharalis
Test: Insecticidal activity against fourth-instar Diatraea saccharalis assessed as larval mortality measured per insect after 24 hr exposure
Type: functional

Row | SMILES | LD50 [µg] | LD90 [µg]
1 | CC(C)CNC(=O)/C=C/CCc1ccc2c(c1)OCO2 [4,5-DIHYDROPIPERLONGUMININE] | 92.83 | 176.5
2 | CCCCC/C=C/C=C/C(=O)NCC(C)C [PELLITORIN] | 91.19 | 184.56
